Experimental data reported in publication PMC5584805 (Biochemistry, 2016).
Where “and” joins values, the source holds several entries; their conditions need not be identical. Equal values may be shown once. Read-outs that look alike come from different tables or passages of the source. Marks after values point to notes of the source that are not given here.

Assays:
[1] = target: T1, Escherichia coli CTP synthetase (EcCTPS) (Escherichia coli, UniProt P0A7E5); assay: CTP synthesis assay; conditions: for apparent kcat at 2 μM EcCTPS: annealing at 40 μM EcCTPS; for EC50: EC50 (activation); for Ki: Ki (two-site model); for IC50^ox/IC50^red: ratio of oxidized to reduced form IC50, standard conditions; for Kd: best fit
T1 sequence (P0A7E5 whole entry): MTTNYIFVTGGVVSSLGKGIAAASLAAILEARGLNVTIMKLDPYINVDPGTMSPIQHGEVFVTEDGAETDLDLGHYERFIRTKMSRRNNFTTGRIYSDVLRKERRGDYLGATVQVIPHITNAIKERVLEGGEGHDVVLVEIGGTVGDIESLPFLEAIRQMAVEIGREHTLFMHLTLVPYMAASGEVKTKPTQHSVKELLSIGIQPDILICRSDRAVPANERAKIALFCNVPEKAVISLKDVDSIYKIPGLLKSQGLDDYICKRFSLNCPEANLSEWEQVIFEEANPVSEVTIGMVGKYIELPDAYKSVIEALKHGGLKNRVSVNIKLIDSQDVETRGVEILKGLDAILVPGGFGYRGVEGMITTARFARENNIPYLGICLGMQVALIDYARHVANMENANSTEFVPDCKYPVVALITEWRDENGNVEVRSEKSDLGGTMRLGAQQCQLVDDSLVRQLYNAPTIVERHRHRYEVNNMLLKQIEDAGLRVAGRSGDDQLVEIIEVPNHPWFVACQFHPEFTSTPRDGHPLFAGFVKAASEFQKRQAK

[2] = test system: CTPS glutamine hydrolysis; conditions: low concentrations (0–200 μM); cited from earlier work
E277R EcCTPS = E277R EcCTPS (Escherichia coli, UniProt P0A7E5, E277R); assay: CTP synthesis assay, filament-blocking mutant E277R EcCTPS; format: biochemical
Chain of E277R EcCTPS (P0A7E5 whole entry E277R): as the sequence (P0A7E5 whole entry) above, with E277R counted along it

[3] = target: T1, Escherichia coli CTP synthetase (EcCTPS); conditions: read-out: IC50 (inhibition of CTP synthesis); higher GTP concentrations; cited from earlier work
EcCTPS = EcCTPS (Escherichia coli, UniProt P0A7E5); assay: Ammonia-dependent CTP synthesis; format: biochemical; conditions: Figure S6
Chain of EcCTPS (P0A7E5 whole entry): as the sequence (P0A7E5 whole entry) above

[4] = 100 nM enzyme, other substrates saturating, 200 μM GTP
[5] = limiting substrate titrated, other substrates saturating, 200 μM GTP, 37 °C
[6] = standard: 200 nM EcCTPS, 1.5 mM ATP, 600 μM UTP, 10 mM glutamine, 200 μM GTP (unless GTP titrated), linear extrapolation
[7] = IC50, standard: 200 nM EcCTPS, 1.5 mM ATP, 600 μM UTP, 10 mM glutamine, 200 μM GTP (unless GTP titrated), linear extrapolation
[8] = inhibitor alone, activating GTP (50 or 200 μM)
[9] = two ligands present (second inhibitor)

Nc1ncnc2c1ncn2[C@@H]1O[C@H](COP(=O)(O)OP(=O)(O)OP(=O)(O)O)[C@@H](O)[C@H]1O [ATP, adenosine 5’-triphosphate]
Hill coeff, nH [1, 4]: 1.7 ± 0.3
S0.5 [1, 4]: 126 ± 13 µM
S0.5 ([1]; 50 μM GTP): 81 ± 5 µM
Hill coeff, nH ([1]; 60 μM UTP): 1.9 ± 0.4 (5)
S0.5 ([1]; 60 μM UTP): 310 ± 20 µM
S0.5 ([1]; 500 μM GTP): 155 ± 25 µM
Hill coeff, nH [1, 5]: 1.7 ± 0.2 (18)^c

NC(=O)c1ccc[n+]([C@@H]2O[C@H](COP(=O)([O-])OP(=O)(O)OC[C@H]3O[C@@H](n4cnc5c(N)ncnc54)[C@H](OP(=O)(O)O)[C@@H]3O)[C@@H](O)[C@H]2O)c1 [NADP^+, nicotinamide adenine dinucleotide 2’-phosphate (oxidized)]
IC50 [1, 6]: 1280 ± 50 µM

Nc1nc2c(ncn2[C@@H]2O[C@H](COP(=O)(O)OP(=O)(O)OP(=O)(O)O)[C@@H](O)[C@H]2O)c(=O)[nH]1 [GTP, guanosine-5’-triphosphate]
activation of glutamine hydrolysis [2]: up to 50 fold
kact (two-site activation/inhibition model) ([1]; 200 nM WT, no other inhibitor): 10.7 s⁻¹
ninh (two-site model) ([1]; 200 nM WT, no other inhibitor): 4.7
kact (two-site model) ([1]; 4 μM WT): 4.7 s⁻¹
ninh (two-site model) ([1]; 4 μM WT): 4.1
enzyme concentration for 50% autoinhibition ([1]; 50 μM GTP): 6.1 µM
apparent kcat at 2 μM EcCTPS ([1]; 50 μM GTP): 2.9 s⁻¹
enzyme concentration for 50% autoinhibition ([1]; 200 μM GTP): 3.9 µM
apparent kcat at 2 μM EcCTPS ([1]; 200 μM GTP): 5.0 ± 0.1 s⁻¹
enzyme concentration for 50% autoinhibition ([1]; 500 μM GTP): 2.8 µM
apparent kcat at 2 μM EcCTPS ([1]; 500 μM GTP): 2.7 ± 1.0 s⁻¹
EC50 ([1]; 4 μM WT EcCTPS): 27 ± 7 µM
EC50 ([1]; standard: 200 nM EcCTPS, 1.5 mM ATP, 600 μM UTP, 10 mM glutamine): ~38 µM and 38 µM
IC50 ([1]; IC50, 4 μM WT EcCTPS): 455 ± 46 µM
IC50 [1, 7]: 540 ± 60 µM
Ki ([1]; 200 nM WT, no other inhibitor): 301 µM
Ki ([1]; 4 μM WT): 221 µM
optimal GTP concentration ([1]; in presence of 500 μM NADH): approximately 100 μM
concentration of maximum activation ([1]; standard conditions): ~ 200 μM
EC50 (E277R EcCTPS): 46 ± 6 µM
IC50 (E277R EcCTPS): 697 ± 4 µM
Ki (E277R EcCTPS): 342 µM
kact (two-site model) (E277R EcCTPS; 200 nM E277R): 10.7 s⁻¹
ninh (two-site model) (E277R EcCTPS; 200 nM E277R): 3.8
IC50 [3]: ~500 µM

C[n+]1cccc(C(N)=O)c1 [1MeN, 1-methylnicotinamide]
inhibition at 3000 µM [1]: < 25%
IC50 [1, 7]: ~4000 µM

NC(=O)C1=CN([C@@H]2O[C@H](COP(=O)(O)OP(=O)(O)OC[C@H]3O[C@@H](n4cnc5c(N)ncnc54)[C@H](O)[C@@H]3O)[C@@H](O)[C@H]2O)C=CC1 [NADH, 1,4 dihydronicotinamide adenine dinucleotide (reduced)]
IC50 ([1]; 50 μM GTP, otherwise standard): 770 ± 30 µM
dependence of inhibition potency on enzyme concentration ([1]; Figure S4): independent of enzyme concentration from 50 to 400 nM
inhibition ([1]; at 1250 μM, standard conditions): greater than 95%
increase of inhibition potency ([1]; by 400 μM CTP): ~ 2.1 fold
K2/K1 (sequential binding model) [1, 8]: 4–40
K3/K2 (sequential binding model) [1, 8]: 0.2–0.8
IC50^ox/IC50^red [1]: 3.7
IC50 [1, 6]: 470 ± 40 µM
K2/K1 (sequential binding model) [1, 9]: 0.4–0.8
K3/K2 (sequential binding model) [1, 9]: 40–250
dose–response of E277R compared with wild-type (E277R EcCTPS; 200 nM enzyme, 0–1500 μM NADH): no significant differences between wild-type and mutant
effect on ammonia-dependent synthesis (EcCTPS): inhibits

NC(=O)C1=CN([C@@H]2O[C@H](COP(=O)(O)OP(=O)(O)OC[C@H]3O[C@@H](n4cnc5c(N)ncnc54)[C@H](OP(=O)(O)O)[C@@H]3O)[C@@H](O)[C@H]2O)C=CC1 [NADPH, 1,4 dihydronicotinamide adenine dinucleotide 2’-phosphate (reduced)]
IC50^ox/IC50^red [1]: 2.8
IC50 [1, 6]: 450 ± 20 µM

NC(=O)CC[C@H](N)C(=O)O [glutamine]
Hill coeff, nH [1, 4]: 1.1 ± 0.1 (11)
S0.5 [1, 4]: 360 ± 20^e μM

O=c1ccn([C@@H]2O[C@H](COP(=O)(O)OP(=O)(O)OP(=O)(O)O)[C@@H](O)[C@H]2O)c(=O)[nH]1 [UTP, uridine-5’- triphosphate]
Hill coeff, nH [1, 4]: 1.3 ± 0.2
S0.5 [1, 4]: 57 ± 8 µM
Hill coeff, nH ([1]; 150 μM ATP (subsaturating)): 1.8 ± 0.1 (6)
S0.5 ([1]; 150 μM ATP (subsaturating)): 200 ± 40 µM
Hill coeff, nH [1, 5]: 1.4 ± 0.3 (23)^b

Nc1ccn([C@@H]2O[C@H](COP(=O)(O)OP(=O)(O)OP(=O)(O)O)[C@@H](O)[C@H]2O)c(=O)n1 [CTP, cytidine-5’-triphosphate]
inhibition at 750 µM [1]: 85%
limiting slope of Hill plot, high concentration range ([1]; 50 μM UTP, 100 nM EcCTPS): −1.9 ± 0.3
limiting slope of Hill plot, low concentration range ([1]; 50 μM UTP, 100 nM EcCTPS): −0.6 ± 0.2
IC50 ([1]; IC50, 50 μM GTP, otherwise standard): 620 ± 30 µM
IC50 ([1]; IC50, 500 μM GTP, otherwise standard): 220 ± 60 µM
IC50 [1, 7]: ~370 µM and 370 µM
Kd ([1]; K1 (four-site sequential binding model), standard conditions): 446 µM
Kd ([1]; K2 (four-site sequential binding model), standard conditions): 2120 µM
Kd ([1]; K3 (four-site sequential binding model), standard conditions): 1170 µM
Kd ([1]; K4 (four-site sequential binding model), standard conditions): 7.5 µM
increase of inhibition potency ([1]; by 500 μM NADH): 2.3 fold
IC50 ([1]; fit IC50 value (four-site sequential binding model), standard conditions): 385 µM
K2/K1 (sequential binding model) [1, 8]: 4–40
K3/K2 (sequential binding model) [1, 8]: 0.2–0.8
IC50 relative to UTP concentration (fold lower) ([1]; saturating UTP (600 μM)): 1.6 fold
average slope of Hill plot ([1]; standard conditions): −2.0
K2/K1 (sequential binding model) [1, 9]: 0.4–0.8
K3/K2 (sequential binding model) [1, 9]: 40–250

NC(=O)c1ccc[n+]([C@@H]2O[C@H](COP(=O)([O-])OP(=O)(O)OC[C@H]3O[C@@H](n4cnc5c(N)ncnc54)[C@H](O)[C@@H]3O)[C@@H](O)[C@H]2O)c1 [NAD^+, nicotinamide adenine dinucleotide (oxidized)]
fold less effective inhibition than NADH ([1]; standard conditions): ~ 3 fold
IC50 [1, 6]: 1700 ± 70 µM

Nc1ncnc2c1ncn2[C@@H]1O[C@H](COP(=O)(O)OP(=O)(O)O)[C@@H](O)[C@H]1O [ADP, adenosine 5’-diphosphate]
inhibition at 3000 µM [1]: 35%
IC50 [1, 7]: ~4500 µM

CN1C=CCC(C(N)=O)=C1 [1MDHN, 1-methyl 1,4-dihydronicotinamide]
increase of inhibition potency ([1]; by 400 μM CTP): more than 2 fold
K2/K1 (sequential binding model) [1, 8]: 4–40
K3/K2 (sequential binding model) [1, 8]: 0.2–0.8
IC50^ox/IC50^red [1]: >28
IC50 [1, 6]: 140 ± 10 µM
